In paper PMC5371550, “GABAB receptor attenuation of GABAA currents in neurons of the mammalian central nervous system” (Physiological Reports, 2017):

Key:
[1] = system: T1, α-subunit containing GABAA receptor (GABAAR) from human amygdala; details: agonist; -70 mV, pH 7.4, room temperature
T1 construct: gene GABRA1

[2] = system: T1, α-subunit containing GABAA receptor (GABAAR) from human amygdala; assay type: cell-based; details: antagonist against 50 μmol/L GABA; pH 7.4, room temperature

Work on `NCc1cc(O)no1` [muscimol] yielded an EC50 [1] of 45 µM.
In the case of `CN1CCc2cc3c(cc2[C@H]1[C@@H]1OC(=O)c2c1ccc1c2OCO1)OCO3` [bicuculline], the IC50 [2] is reported as 8 µM.
